According to patent US20070155764A1, “NOVEL SUBSTITUTED PYRIMIDINYLOXY UREAS USEFUL AS INHIBITORS OF PROTEIN KINASES” (KALYPSYS, INC., priority 2005, published 2007):

Legend:
[1] = molecular target: T1, human B-Raf protein kinase (Homo sapiens, UniProt P15056); experiment: In vitro B-Raf/Mek1 composite kinase assay; type: biochemical; settings: recombinant GST-tagged human B-Raf (Δ1-415) with inactive Mek1, 2 μM ATP
T1 construct: GST (N); purchased Upstate Inc. 14-530 (B-Raf); 14-420 (Mek1)
Summary of the method: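 Luminescent ATP-depletion assay using recombinant N-terminal GST-tagged human B-Raf (Δ1-415, 1 ng/well) in MOPS pH 7.2 buffer with 10 mM MgCl2. Compounds were preincubated 15 min at about 22° C, then the reaction ran 2 h before PKLight readout. Efficacy is expressed as percentage of positive-control (Bay 43-9006) activity.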

[2] = test system: HT-29 human colon carcinoma tumor cells; experiment: In vivo anti-tumor activity, HT-29 xenograft; settings: 60 mg/kg once daily by oral gavage; for T/C (%): HT-29 subcutaneous tumors in female Balb/C nu/nu mice, treated/control average tumor size at end of study; for Survival: HT-29 tumor-bearing female Balb/C nu/nu mice, surviving/total
Experimental: In Vivo Anti-Tumor Activity
Acclimated female Balb/C nu/nu mice are injected subcutaneously into the flank with cell pellets of 5×10^6 HT-29 human colon carcinoma tumor cells (ATCC #HTB-38). The mice are fed sterile rodent chow and water ad libitum, and kept in pathogen-free, sterile-filtered cages with half-day light/dark cycles. Tumors are allowed to grow until they reach an average size of 100-150 mm^3, determined by caliper measurement. One day before beginning treatment, mice are randomized by tumor size into evenly distributed cohorts. Mice are dosed once daily by oral gavage (10 ml/kg) with compounds formulated as solutions in Cremaphor EL:Ethanol:Water, at a 1:1:6 ratio. Control mice are dosed with the formulation vehicle only. Tumor size and mouse weight are monitored every three to four days. At the end of the study, treatment efficacy is determined by the T/C value, calculated by dividing the average tumor size of a compound-treated cohort by the average tumor size of the control-treated cohort, expressed as a percentage. Therefore, anti-tumor efficacy is inversely proportional to the T/C.

[3] = molecular target: T2, VEGFR2 kinase (Homo sapiens, UniProt P35968); experiment: In vitro VEGFR2 kinase assay; type: biochemical; settings: ADP Quest assay, poly Glu:Tyr substrate, 60 μM ATP
T2 construct: purchased Invitrogen Inc PV3660
Summary of the method: (§1)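 Compound was preincubated 10 min at ~22 °C with 20 ng VEGFR2 or 25 ng PDGFRβ, then poly Glu:Tyr (4:1) substrate (0.25 μg) with 60 μM ATP (in added buffer) was reacted 2 h at 30 °C. ADP Quest resorufin fluorescence was read (ex 530/em 580) after 30 min. Efficacy is expressed as percent of positive-control (Bay 43-9006) activity, with DMSO as negative control.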

[4] = molecular target: T3, PDGFRβ kinase (Homo sapiens, UniProt P09619); experiment: In vitro PDGFRβ kinase assay; type: biochemical; settings: ADP Quest assay, poly Glu:Tyr substrate, 60 μM ATP
T3 construct: purchased Invitrogen Inc. P3082
Summary of the method: as §1

T1 sequence (P15056 416-766): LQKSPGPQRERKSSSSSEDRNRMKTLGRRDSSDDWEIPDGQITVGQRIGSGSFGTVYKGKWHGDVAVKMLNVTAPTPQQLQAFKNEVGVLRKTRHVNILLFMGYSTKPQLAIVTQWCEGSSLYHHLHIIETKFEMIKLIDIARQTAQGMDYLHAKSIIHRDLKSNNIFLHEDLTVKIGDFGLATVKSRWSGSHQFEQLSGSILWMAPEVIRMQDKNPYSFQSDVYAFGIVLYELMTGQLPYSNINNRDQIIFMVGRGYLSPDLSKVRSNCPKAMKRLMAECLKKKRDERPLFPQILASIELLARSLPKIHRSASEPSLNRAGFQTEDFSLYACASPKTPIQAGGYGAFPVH
T3 sequence (P09619 33-1106): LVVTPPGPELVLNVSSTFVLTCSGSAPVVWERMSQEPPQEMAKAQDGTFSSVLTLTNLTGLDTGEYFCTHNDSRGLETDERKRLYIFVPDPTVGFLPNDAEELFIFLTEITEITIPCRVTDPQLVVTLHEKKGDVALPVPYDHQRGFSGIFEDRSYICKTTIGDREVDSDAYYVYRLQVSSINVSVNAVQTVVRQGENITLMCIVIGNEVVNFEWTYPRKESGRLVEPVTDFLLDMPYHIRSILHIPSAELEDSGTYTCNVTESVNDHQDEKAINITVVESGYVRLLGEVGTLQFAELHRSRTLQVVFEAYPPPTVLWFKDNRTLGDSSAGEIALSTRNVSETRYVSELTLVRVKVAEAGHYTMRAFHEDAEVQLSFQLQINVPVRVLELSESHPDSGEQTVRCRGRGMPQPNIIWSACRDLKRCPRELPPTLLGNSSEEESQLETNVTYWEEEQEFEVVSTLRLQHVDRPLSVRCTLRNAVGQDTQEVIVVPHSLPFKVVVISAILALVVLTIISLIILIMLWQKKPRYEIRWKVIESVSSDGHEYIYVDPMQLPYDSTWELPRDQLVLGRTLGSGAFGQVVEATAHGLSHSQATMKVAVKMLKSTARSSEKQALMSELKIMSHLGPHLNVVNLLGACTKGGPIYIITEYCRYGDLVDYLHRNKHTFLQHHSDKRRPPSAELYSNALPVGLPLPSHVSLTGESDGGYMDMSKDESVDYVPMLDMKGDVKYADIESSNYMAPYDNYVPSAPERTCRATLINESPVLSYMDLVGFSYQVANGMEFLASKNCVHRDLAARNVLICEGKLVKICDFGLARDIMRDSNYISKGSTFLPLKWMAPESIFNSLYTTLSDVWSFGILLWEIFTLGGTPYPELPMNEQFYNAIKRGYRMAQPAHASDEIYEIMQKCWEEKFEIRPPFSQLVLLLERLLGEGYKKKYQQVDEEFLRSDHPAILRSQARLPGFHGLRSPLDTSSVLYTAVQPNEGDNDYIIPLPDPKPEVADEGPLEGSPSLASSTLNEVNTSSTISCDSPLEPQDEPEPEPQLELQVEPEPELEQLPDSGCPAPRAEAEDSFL
T2 sequence (P35968 20-1356): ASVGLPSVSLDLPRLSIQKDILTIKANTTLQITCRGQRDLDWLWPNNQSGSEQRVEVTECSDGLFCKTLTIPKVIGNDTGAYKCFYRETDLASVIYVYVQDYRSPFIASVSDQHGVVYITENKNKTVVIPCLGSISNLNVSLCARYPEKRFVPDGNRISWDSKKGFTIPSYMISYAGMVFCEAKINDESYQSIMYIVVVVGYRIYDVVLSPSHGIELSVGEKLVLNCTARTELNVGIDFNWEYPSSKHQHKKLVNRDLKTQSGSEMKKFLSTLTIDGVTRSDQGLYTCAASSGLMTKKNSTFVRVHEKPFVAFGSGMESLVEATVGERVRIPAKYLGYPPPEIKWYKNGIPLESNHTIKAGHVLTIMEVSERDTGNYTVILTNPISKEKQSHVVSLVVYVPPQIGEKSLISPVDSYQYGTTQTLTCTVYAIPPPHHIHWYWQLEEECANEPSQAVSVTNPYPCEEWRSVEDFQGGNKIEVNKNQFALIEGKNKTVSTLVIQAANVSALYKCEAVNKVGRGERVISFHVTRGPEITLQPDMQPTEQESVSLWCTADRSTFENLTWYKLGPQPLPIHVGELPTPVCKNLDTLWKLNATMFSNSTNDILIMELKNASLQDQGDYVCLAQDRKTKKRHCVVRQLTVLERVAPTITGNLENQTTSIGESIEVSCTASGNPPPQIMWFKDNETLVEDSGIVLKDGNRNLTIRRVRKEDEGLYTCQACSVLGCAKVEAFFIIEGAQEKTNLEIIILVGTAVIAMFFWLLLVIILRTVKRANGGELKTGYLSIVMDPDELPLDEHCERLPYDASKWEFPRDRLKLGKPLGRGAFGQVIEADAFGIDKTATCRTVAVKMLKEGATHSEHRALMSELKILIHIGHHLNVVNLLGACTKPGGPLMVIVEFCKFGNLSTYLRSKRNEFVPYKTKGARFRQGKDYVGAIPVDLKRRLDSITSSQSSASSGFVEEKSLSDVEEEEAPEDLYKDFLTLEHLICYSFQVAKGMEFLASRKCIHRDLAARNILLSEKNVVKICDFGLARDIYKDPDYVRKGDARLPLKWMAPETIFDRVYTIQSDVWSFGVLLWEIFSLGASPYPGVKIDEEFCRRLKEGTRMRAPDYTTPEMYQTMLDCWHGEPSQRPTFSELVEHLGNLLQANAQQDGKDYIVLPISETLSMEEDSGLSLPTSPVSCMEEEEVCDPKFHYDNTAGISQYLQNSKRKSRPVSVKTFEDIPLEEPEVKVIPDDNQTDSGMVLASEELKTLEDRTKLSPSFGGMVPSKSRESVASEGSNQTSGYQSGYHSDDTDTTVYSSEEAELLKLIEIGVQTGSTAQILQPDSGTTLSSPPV

SMILES | IC50 [1] [µM] | T/C (%) [2] [%] | Survival [2] | IC50 [3] [µM] | IC50 [4] [µM]
Cn1cc(-c2cc(Oc3cccc(NC(=O)Nc4ccc(Cl)c(C(F)(F)F)c4)c3)ncn2)cn1 [Example 34, 1-(4-Chloro-3-(trifluoromethyl)phenyl)-3-(3-(6-(1-methyl-1H-pyrazol-4-yl)pyrimidin-4-yloxy)phenyl)urea] | ≤ 10 | 20 | 10/10 | ≤ 10 | ≤ 10
Cn1cc(-c2nccc(Oc3ccc(NC(=O)Nc4ccc(Cl)c(C(F)(F)F)c4)cc3)n2)cn1 [Example 65, 1-(4-Chloro-3-(trifluoromethyl)phenyl)-3-(4-(2-(1-methyl-1H-pyrazol-4-yl)pyrimidin-4-yloxy)phenyl)urea] | ≤ 10 | 25 | 10/10 | ≤ 10 | ≤ 10
Cn1cc(-c2cc(Oc3ccc(F)c(NC(=O)Nc4ccc(Cl)c(C(F)(F)F)c4)c3)ncn2)cn1 [Example 66, 1-(4-Chloro-3-(trifluoromethyl)phenyl)-3-(2-fluoro-5-(6-(1-methyl-1H-pyrazol-4-yl)pyrimidin-4-yloxy)phenyl)urea] | ≤ 10 | 11 | 10/10 | ≤ 10 | ≤ 10
Cn1cc(-c2cc(Oc3cccc(NC(=O)Nc4ccc(C(F)(F)F)cc4)c3)ncn2)cn1 [Example 87, 1-(3-(6-(1-Methyl-1H-pyrazol-4-yl)pyrimidin-4-yloxy)phenyl)-3-(4-(trifluoromethyl)phenyl)urea] | ≤ 10 | 15 | 10/10 | ≤ 10 | ≤ 10
CN(C(=O)Nc1cccc(Oc2ccnc(-c3nnco3)c2)c1)c1ccc(Cl)c(C(F)(F)F)c1 [Example 109, 3-(3-(2-(1,3,4-Oxadiazol-2-yl)pyridin-4-yloxy)phenyl)-1-(4-chloro-3-(trifluoromethyl)phenyl)-1-methylurea] | ≤ 10 | – | – | > 10 | > 10
CN(C(=O)Nc1ccc(Cl)c(C(F)(F)F)c1)c1ccc(Oc2ccnc(-c3nnco3)c2)cc1 [Example 110, 1-(4-(2-(1,3,4-Oxadiazol-2-yl)pyridin-4-yloxy)phenyl)-3-(4-chloro-3-(trifluoromethyl)phenyl)-1-methylurea] | ≤ 10 | – | – | ≤ 10 | ≤ 10
CN(C(=O)Nc1ccc(Cl)c(C(F)(F)F)c1)c1cccc(Oc2ccnc(-c3nnco3)c2)c1 [Example 111] | > 10 | – | – | > 10 | ≤ 10
Cc1ccc(F)c(NC(=O)N(C)c2ccc(Oc3ccnc(-c4nnco4)c3)cc2)c1 [Example 112, 3-(2-Fluoro-5-methyl-phenyl)-1-methyl-1-[4-(2-[1,3,4]oxadiazol-2-yl-pyridin-4-yloxy)-phenyl]-urea] | ≤ 10 | – | – | > 10 | ≤ 10
CN(C(=O)Nc1ccc(Cl)c(Cl)c1)c1ccc(Oc2ccnc(-c3nnco3)c2)cc1 [Example 113, 3-(3,4-Dichloro-phenyl)-1-methyl-1-[4-(2-[1,3,4]oxadiazol-2-yl-pyridin-4-yloxy)-phenyl]-urea] | ≤ 10 | – | – | > 10 | ≤ 10
CNC(=O)c1cc(Oc2ccc(N(C)C(=O)Nc3ccc(Cl)c(C(F)(F)F)c3)cc2)ccn1 [Example 114, 4-{4-[3-(4-Chloro-3-trifluoromethyl-phenyl)-1-methyl-ureido]-phenoxy}-pyridine-2-carboxylic acid methylamide] | ≤ 10 | – | – | ≤ 10 | ≤ 10
CNC(=O)c1cccc(NC(=O)N(C)c2ccc(Oc3ccnc(C(=O)NC)c3)cc2)c1 [Example 115, 4-{4-[1-Methyl-3-(3-methylcarbamoyl-phenyl)-ureido]-phenoxy}-pyridine-2-carboxylic acid methylamide] | ≤ 10 | – | – | > 10 | > 10
CNC(=O)c1cc(NC(=O)N(C)c2ccc(Oc3ccnc(C(=O)NC)c3)cc2)cc(C(F)(F)F)c1 [Example 116, 4-{4-[1-Methyl-3-(3-methylcarbamoyl-5-trifluoromethyl-phenyl)-ureido]-phenoxy}-pyridine-2-carboxylic acid methylamide] | > 10 | – | – | ≤ 10 | ≤ 10
CNC(=O)c1cc(Oc2ccc(N(C)C(=O)Nc3cc(OCCOC)cc(C(F)(F)F)c3)cc2)ccn1 [Example 117, 4-(4-{3-[3-(2-Methoxy-ethoxy)-5-trifluoromethyl-phenyl]-1-methyl-ureido}-phenoxy)-pyridine-2-carboxylic acid methylamide] | > 10 | – | – | ≤ 10 | ≤ 10
CNC(=O)c1cc(Oc2ccc(N(C)C(=O)Nc3cc(-n4cnc(C)c4)cc(C(F)(F)F)c3)cc2)ccn1 [Example 118, 4-(4-{1-Methyl-3-[3-(4-methyl-imidazol-1-yl)-5-trifluoromethyl-phenyl]-ureido}-phenoxy)-pyridine-2-carboxylic acid methylamide] | ≤ 10 | – | – | ≤ 10 | ≤ 10
CN(C(=O)Nc1ccc(Cl)c(C(F)(F)F)c1)c1ccc(Oc2ccnc(-c3cnn(C)c3)c2)cc1 [Example 119, 3-(4-Chloro-3-trifluoromethyl-phenyl)-1-methyl-1-{4-[2-(1-methyl-1H-pyrazol-4-yl)-pyridin-4-yloxy]-phenyl}-urea] | ≤ 10 | – | – | ≤ 10 | ≤ 10
CN(C(=O)Nc1ccc(Cl)c(C(F)(F)F)c1)c1ccc(Oc2ccnc(-c3nc(C(F)(F)F)c[nH]3)c2)cc1 [Example 120, 3-(4-Chloro-3-trifluoromethyl-phenyl)-1-methyl-1-{4-[2-(4-trifluoromethyl-1H-imidazol-2-yl)-pyridin-4-yloxy]-phenyl}-urea] | ≤ 10 | – | – | ≤ 10 | ≤ 10
